Patent publication US10174013B2, “Benzimidazole derivatives as kinase inhibitors” (SELVITA S.A., priority 2012, dated 2019)
Counter-ions that a name gives are not always drawn. Like-named read-outs stand apart in the source and are kept apart here.

What was measured:
[1] = target: Pim-1 (Homo sapiens (Human), UniProt P11309); assay: ADP-Glo Kinase Assay, Pim-1; type: biochemical; conditions: 1 μM compound; read-out: Pim-1 % INH (1 μM)
How it was run: (§1)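 Compounds were diluted in assay buffer to 1000 nM and incubated with kinase, substrate and ATP at apparent Km. Remaining ATP was depleted, ADP converted to ATP and detected by luciferase; percent inhibition came from normalized luminescence.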

[2] = target: Pim-2 (Homo sapiens (Human), UniProt Q9P1W9); assay: ADP-Glo Kinase Assay, Pim-2; type: biochemical; conditions: 1 μM compound; for inhibition at 1 µM: read-out: Pim-2 % INH (1 μM)
Pim-2, sequence (Q9P1W9 whole entry): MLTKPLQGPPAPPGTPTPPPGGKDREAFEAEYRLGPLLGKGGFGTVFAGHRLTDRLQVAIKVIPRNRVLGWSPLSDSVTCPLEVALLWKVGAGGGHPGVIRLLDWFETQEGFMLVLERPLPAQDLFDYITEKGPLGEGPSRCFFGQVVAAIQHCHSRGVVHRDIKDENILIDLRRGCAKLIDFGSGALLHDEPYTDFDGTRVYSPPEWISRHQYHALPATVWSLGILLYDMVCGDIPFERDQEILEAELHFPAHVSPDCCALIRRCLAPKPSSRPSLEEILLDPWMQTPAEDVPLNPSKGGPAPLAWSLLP
How it was run: as §1

[3] = target: Pim-3 (Homo sapiens (Human), UniProt Q86V86); assay: ADP-Glo Kinase Assay, Pim-3; type: biochemical; conditions: 1 μM compound; for inhibition at 1 µM: read-out: Pim-3 % INH (1 μM)
How it was run: as §1

[4] = target: FLT3wt (Homo sapiens (Human), UniProt P36888); assay: ADP-Glo Kinase Assay, Flt3 wt; type: biochemical; conditions: 1 μM compound; for inhibition at 1 µM: read-out: Flt3wt % INH (1 μM)
FLT3wt, sequence (P36888 27-993): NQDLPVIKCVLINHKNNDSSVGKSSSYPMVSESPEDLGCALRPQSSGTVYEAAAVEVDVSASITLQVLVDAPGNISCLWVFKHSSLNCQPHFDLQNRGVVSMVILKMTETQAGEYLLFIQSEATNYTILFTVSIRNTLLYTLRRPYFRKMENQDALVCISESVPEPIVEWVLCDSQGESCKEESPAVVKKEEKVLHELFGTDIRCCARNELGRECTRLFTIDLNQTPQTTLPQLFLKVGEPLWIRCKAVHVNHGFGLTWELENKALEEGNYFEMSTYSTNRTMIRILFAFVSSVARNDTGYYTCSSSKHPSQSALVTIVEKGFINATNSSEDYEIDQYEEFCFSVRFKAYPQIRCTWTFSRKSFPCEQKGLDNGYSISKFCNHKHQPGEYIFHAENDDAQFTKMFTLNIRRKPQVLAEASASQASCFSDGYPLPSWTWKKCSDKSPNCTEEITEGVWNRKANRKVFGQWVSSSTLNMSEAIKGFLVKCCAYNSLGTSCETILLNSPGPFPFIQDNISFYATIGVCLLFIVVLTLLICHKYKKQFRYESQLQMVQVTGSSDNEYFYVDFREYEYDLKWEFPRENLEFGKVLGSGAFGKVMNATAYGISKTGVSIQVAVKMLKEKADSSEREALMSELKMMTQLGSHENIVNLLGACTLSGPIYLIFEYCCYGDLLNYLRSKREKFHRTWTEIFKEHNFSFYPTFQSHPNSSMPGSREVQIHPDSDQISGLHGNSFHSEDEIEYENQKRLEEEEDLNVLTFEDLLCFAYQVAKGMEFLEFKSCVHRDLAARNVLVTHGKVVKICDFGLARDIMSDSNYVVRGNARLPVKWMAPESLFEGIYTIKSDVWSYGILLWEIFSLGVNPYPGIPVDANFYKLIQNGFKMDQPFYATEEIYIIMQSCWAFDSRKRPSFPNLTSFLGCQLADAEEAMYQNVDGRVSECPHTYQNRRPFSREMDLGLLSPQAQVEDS
How it was run: as §1

[5] = target: CDK2/E (Homo sapiens (Human), UniProt P24941); assay: ADP-Glo Kinase Assay, CDK2/E; type: biochemical; conditions: 1 μM compound; for inhibition at 1 µM: read-out: CDK2/E % INH (1 μM)
How it was run: as §1

[6] = target: DYRK1 (Homo sapiens (Human), UniProt Q13627); assay: ADP-Glo Kinase Assay, DYRK1; type: biochemical; conditions: 1 μM compound; for inhibition at 1 µM: read-out: DYRK1A % INH (1 μM)
How it was run: as §1

[7] = system: MV4-11 cells; assay: Growth inhibition, MTS assay, MV4-11; type: cell-based, Human; conditions: MTS cell viability, read-out: MV4-11 ED50
[8] = target: CYP3A4 (Homo sapiens (Human), UniProt P08684); assay: Cytochrome P450 inhibition, fluorescence, CYP3A4; type: in vitro ADME; conditions: recombinant CYP3A4, fluorescence detection; read-out: CYP inhibition (CYP 3A4 screening, IC50 class)
CYP3A4, sequence (P08684 whole entry, canonical isoform): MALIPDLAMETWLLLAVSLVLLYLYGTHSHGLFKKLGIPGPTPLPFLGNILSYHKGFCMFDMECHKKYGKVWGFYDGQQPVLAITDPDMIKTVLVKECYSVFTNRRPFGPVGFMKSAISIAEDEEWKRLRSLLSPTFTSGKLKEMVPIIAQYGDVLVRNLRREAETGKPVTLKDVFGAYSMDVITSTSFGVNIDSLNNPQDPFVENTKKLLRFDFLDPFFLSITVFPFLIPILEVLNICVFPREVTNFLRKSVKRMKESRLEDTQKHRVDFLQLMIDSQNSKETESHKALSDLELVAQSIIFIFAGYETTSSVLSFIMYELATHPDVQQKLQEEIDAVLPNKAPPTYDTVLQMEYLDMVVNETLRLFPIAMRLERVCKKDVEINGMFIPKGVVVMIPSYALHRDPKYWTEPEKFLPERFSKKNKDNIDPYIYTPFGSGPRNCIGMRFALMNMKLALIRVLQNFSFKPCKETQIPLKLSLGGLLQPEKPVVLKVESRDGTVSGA
Experimental: The assays for cytochrome P450 inhibition facilitate the identification of drug candidates with lower potential for drug-drug interactions (weak enzymes inhibitors). In vitro experiments were conducted to determine whether a drug inhibits a specific CYP enzyme. The experiments comprised the incubation of the drug with probe substrates for the CYP enzymes, wherein the following recombinant cytochrome P450 isoforms were employed: CYP1A2, CYP2C8, CYP2C9, CYP2C19, CYP2D6 and CYP3A4, together with various probe substrates enabling fluorescence detection. The protocol uses a single substrate concentration near the apparent Km and multiple compound concentrations.
The assay was performed in 96-well microtiter plates. The row designations were A through H and the column designations were 1 through 12. […] Each compound (see Table 6 for tested compounds) was added to the wells in column 1 and serially diluted to the wells in column 8. Wells 9 and 10 were control wells which contained no test compound (therefore no inhibition-full signal is detected.) The wells in columns 11 and 12 were blanks, where STOP solution was added prior to the addition of the enzyme/substrate mix to the NADPH regenerating system (the only signal present in these wells is background noise.) The assay was conducted in a final volume of 0.2 ml per well.
The stock solutions of the tested compounds were prepared in DMSO at 10 mM concentration. […] After mixing the compounds with solution containing NADPH-cofactors, the mixed plate was preincubated in a 37° C. incubator for at least 10 minutes; next, the fluorescence of compounds using recommended excitation/emission filters was measured in order to eliminate false results originating from autofluorescence of the compounds. In the following step, the enzyme/substrate mix was added to columns 1 through 10 and the plates were incubated at 37° C. for specific times depending on the CYP tested (incubation times ranged from 30 to 45 minutes). After adding STOP SOLUTION to all wells and respective enzyme/substrate mix to the wells in columns 11 and 12, the plate was scanned with a fluorescent plate scanner. The excitation/emission filters used for the specific assays are described in the GenTest Screening Kit instruction manual.

[9] = system: HEL92 cells; assay: Growth inhibition, MTS assay, HEL92; type: cell-based, Human; conditions: Homo sapiens, 72 h, MTS cell viability, read-out: HEL92 ED50
[10] = system: HepG2 cells; assay: Growth inhibition, MTS assay, HepG2; type: cell-based, Human; conditions: Homo sapiens, HepG2, 72 h, MTS cell viability, read-out: HepG2 ED50
[11] = system: SW-480 cells; assay: Growth inhibition, MTS assay, SW-480; type: cell-based, Human; conditions: Homo sapiens, SW480; 72 hours, MTS cell viability; read-out: SW-480 ED50
[12] = target: hERG potassium channel (Homo sapiens (Human), UniProt Q12809); assay: hERG automated patch clamp assay (QPatch HT)
hERG potassium channel, sequence (Q12809 whole entry): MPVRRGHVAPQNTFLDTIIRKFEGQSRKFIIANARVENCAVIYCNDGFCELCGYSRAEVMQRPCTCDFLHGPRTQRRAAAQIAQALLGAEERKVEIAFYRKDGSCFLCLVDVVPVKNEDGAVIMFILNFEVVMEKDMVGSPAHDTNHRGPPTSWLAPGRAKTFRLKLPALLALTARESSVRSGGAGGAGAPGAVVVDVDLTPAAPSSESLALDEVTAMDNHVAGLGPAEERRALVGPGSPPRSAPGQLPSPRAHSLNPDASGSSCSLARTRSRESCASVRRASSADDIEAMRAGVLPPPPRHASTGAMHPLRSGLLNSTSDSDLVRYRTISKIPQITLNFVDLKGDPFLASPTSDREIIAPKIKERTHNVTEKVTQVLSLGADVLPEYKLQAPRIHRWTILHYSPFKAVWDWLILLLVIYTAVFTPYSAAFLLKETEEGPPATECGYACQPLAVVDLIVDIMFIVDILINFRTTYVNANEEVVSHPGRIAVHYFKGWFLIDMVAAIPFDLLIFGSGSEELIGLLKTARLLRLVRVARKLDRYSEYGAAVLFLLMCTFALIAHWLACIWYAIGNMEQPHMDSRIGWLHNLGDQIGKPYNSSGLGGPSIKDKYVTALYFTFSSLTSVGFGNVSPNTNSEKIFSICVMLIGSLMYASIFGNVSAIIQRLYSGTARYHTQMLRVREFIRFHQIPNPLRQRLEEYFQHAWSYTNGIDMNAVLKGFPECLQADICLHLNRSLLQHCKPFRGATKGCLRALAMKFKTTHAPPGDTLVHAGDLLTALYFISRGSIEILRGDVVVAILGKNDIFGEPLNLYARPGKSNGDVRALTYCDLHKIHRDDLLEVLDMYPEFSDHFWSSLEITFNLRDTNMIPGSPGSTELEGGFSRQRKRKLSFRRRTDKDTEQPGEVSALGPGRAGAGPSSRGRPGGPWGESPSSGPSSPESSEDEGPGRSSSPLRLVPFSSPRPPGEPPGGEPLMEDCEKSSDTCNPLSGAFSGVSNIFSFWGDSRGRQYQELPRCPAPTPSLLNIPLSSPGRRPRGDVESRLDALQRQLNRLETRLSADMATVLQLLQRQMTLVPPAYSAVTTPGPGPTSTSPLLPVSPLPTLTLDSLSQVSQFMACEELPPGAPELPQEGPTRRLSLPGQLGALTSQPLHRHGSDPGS
Experimental: The hERG (human ether-A-go-go-related gene) channel corresponds to an important anti-target for potential new drugs since its inhibition may lead to sudden death. In order to establish whether the compounds of the present invention act on hERG, the following experiment was carried out.
The in vitro effects of the compounds indicated in Table 5 on the hERG potassium channel current (a surrogate for Iκr, the rapidly activating, delayed rectifier cardiac potassium current) expressed in mammalian cells were evaluated at room temperature using the QPatch HT® (Sophion Bioscience A/S, Denmark), an automatic parallel patch clamp system. Each compound indicated in Table 5 was evaluated at 0.1, 1, 3, 10 and 30 μM with each concentration tested in a minimum of two cells (n≥2). The duration of exposure to each compound concentration was 3 minutes.

[13] = system: Jeko-1 cells; assay: Growth inhibition, MTS assay, Jeko-1; type: cell-based, Human; conditions: Homo sapiens, JeKo-1; 72 hours, MTS cell viability; read-out: Jeko-1 ED50
From the text: The following cell lines, were obtained and used in tests as outlined below: • Human myelomonocytic, biphenotypic leukemia MV4-11 cells (harboring a Flt3-ITD mutation); • Human Acute Myeloid Leukemia MOLM16 cells; • Human Acute Myeloid Leukemia MOLM13 cells (harboring a Flt3-ITD mutation); • Human Myeloid Leukemia KG-1 cells; • Human erythroleukemia HEL92 cells; • Human mantle cell lymphoma Jeko-1 cells; • Human hepatocellular carcinoma HepG2 cells; and • Human colon adenocarcinoma SW-480 cells.
The assays were carried out according to the following protocol, which is described as an example for the MV4-11 cells:
Ten thousand MV4-11 cells were inoculated into each well of a 96-well microplate (manufactured by Corning Corp.) using Iscove's MDM medium (culture medium) containing 10% fetal calf serum (FCS). The same day, a dimethyl sulfoxide (DMSO) solution of each test compound prepared in a concentration of 10 mmol/L was further diluted with DMSO to the desired concentrations (0.1, 0.5, 1, 2.5, 5 and 10 micromol/L), and the diluted solution was added to each well. The individual wells were further cultured in 5% carbon dioxide at 37° C. for 72 hours. […] Briefly, 10 μl MTS (3-(4,5-Dimethyl-2-thiazolyl)-5-(carboxymethoxyphenyl)-2-(4-sulfophenyl)-2H-tetrazolium was added to each well, and culturing was performed in 5% carbon dioxide at 37° C. for 2 hours. After this incubation and using a microplate spectrophotometer (Synergy 2 multi-mode microplate reader (BioTek)), the absorbance of each well was measured at 490 nm. The value for cells not incubated with a test compound was designated as 100%. By comparing these values with the absorbance difference obtained at the well in which each test compound was added, the cell viability (% viability) after treatment with the test compound was calculated.

Pim-1, sequence (P11309 whole entry): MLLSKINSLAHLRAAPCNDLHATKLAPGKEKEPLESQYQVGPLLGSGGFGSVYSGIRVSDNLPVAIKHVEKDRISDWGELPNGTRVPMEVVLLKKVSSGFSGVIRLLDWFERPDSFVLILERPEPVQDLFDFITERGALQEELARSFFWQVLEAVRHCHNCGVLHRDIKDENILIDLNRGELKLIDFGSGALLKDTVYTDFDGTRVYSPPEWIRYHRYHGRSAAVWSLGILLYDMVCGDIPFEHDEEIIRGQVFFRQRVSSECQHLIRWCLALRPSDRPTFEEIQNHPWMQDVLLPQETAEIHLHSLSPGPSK

| inhibition at 1 µM [1] | inhibition at 1 µM [2] | inhibition at 1 µM [3] | inhibition at 1 µM [4] | inhibition at 1 µM [5] | inhibition at 1 µM [6] | IC50 ([7]; Homo sapiens, MV4-11, 72 h) | IC50 [8] | IC50 [10] | IC50 [11] | Pim-2 % INH (1 μM) [2] | Pim-3 % INH (1 μM) [3] | Flt3wt % INH (1 μM) [4] | DYRK1A % INH (1 μM) [6] | IC50 ([7]; 72 hours) | CDK2/E % INH (1 μM) [5] | SMILES | IC50 [9] | IC50 [12] | IC50 [13] |
| --- | --- | --- | --- | --- | --- | --- | --- | --- | --- | --- | --- | --- | --- | --- | --- | --- | --- | --- | --- |
| > 95% | 28% | 84% | < 5% | < 5% | 20% | 5.4 µM | > 10 µM | – | – | – | – | – | – | – | – | CC(C)n1c(N2CCC[C@H](O)C2)nc2c([N+](=O)[O-])c(Br)c(Br)cc21 [Example 22I, (3S)-1-[5,6-dibromo-4-nitro-1-(propan-2-yl)-1H-1,3-benzodiazol-2-yl]piperidin-3-ol] | – | – | – |
| > 95% | 31% | 76% | < 5% | < 5% | 17% | 3.2 µM | 3.3 to 10 µM | 5.1 µM | – | – | – | – | – | – | – | COC(CN)CNc1nc2c([N+](=O)[O-])c(Br)c(Br)cc2n1C(C)C (centres unmarked) [Example 22AB, N-(3-amino-2-methoxypropyl)-5,6-dibromo-4-nitro-1-(propan-2-yl)-1H-1,3-benzodiazol-2-amine] | – | 2.02 µM | – |
| > 95% | 47% | 87% | 13% | 5% | – | 4.8 µM | > 10 µM | – | – | – | – | – | – | – | – | CC(C)n1c(N2CCCC(O)C2)nc2c([N+](=O)[O-])c(Br)c(Br)cc21 (centres unmarked) [Example 22G, 1-[5,6-dibromo-4-nitro-1-(propan-2-yl)-1H-1,3-benzodiazol-2-yl]piperidin-3-] | – | – | – |

More lines, now with the values behind:

| SMILES | inhibition at 1 µM [1] | inhibition at 1 µM [2] | inhibition at 1 µM [3] | inhibition at 1 µM [4] | inhibition at 1 µM [5] | inhibition at 1 µM [6] | IC50 ([7]; Homo sapiens, MV4-11, 72 h) | IC50 [8] | IC50 [10] | IC50 [11] | Pim-2 % INH (1 μM) [2] | Pim-3 % INH (1 μM) [3] | Flt3wt % INH (1 μM) [4] | DYRK1A % INH (1 μM) [6] | IC50 ([7]; 72 hours) | CDK2/E % INH (1 μM) [5] | IC50 [9] | IC50 [12] | IC50 [13] |
| --- | --- | --- | --- | --- | --- | --- | --- | --- | --- | --- | --- | --- | --- | --- | --- | --- | --- | --- | --- |
| NCCCNc1nc2c([N+](=O)[O-])c(Br)c(Br)cc2n1C1CCCC1 [Example 2H, N-(3-aminopropyl)-5,6-dibromo-1-cyclopentyl-4-nitro-1H-1,3-benzodiazol-2-amine hydrochloride] | > 95% | 56% | > 95% | < 5% | < 5% | 62% | 2 µM | 3.3 to 10 µM | 1.5 µM | 1.4 µM | – | – | – | – | – | – | 6.8 µM | – | – |
| CCC(C)n1c(N2CCNCC2)nc2c([N+](=O)[O-])c(Br)c(Br)cc21 (centres unmarked) [Example 2I, 5,6-dibromo-1-(butan-2-yl)-4-nitro-2-(piperazin-1-yl)-1H-1,3-benzodiazole hydrochloride] | > 95% | 75% | > 95% | 89% | 60% | > 95% | 0.2 µM | 3.3 to 10 µM | 1.3 µM | – | – | – | – | – | – | – | 0.8 µM | – | – |
| CC(C)n1c(N2CCOC(CN)C2)nc2c(C#N)c(Br)c(Br)cc21 (centres unmarked) [Example 1BM] | > 95% | – | 62% | < 5% | < 5% | – | 4.9 µM | 1.1 to 3.3 µM | 4.5 µM | – | – | – | – | – | – | – | – | – | – |
| NCCCNc1nc2c([N+](=O)[O-])c(Br)c(Br)cc2[nH]1 [Example 1D] | > 95% | 41% | 57% | < 5% | 21% | 16% | 5.9 µM | > 10 µM | 6.2 µM | 6.2 µM | – | – | – | – | – | – | 8.2 µM | – | – |
| CCn1c(NC2CCCNCC2)nc2c([N+](=O)[O-])c(Br)c(Br)cc21 (centres unmarked) [Example 1Q] | 86% | 22% | > 95% | < 5% | 6% | 11% | 6.9 µM | 3.3 to 10 µM | 1.1 µM | 5.3 µM | – | – | – | – | – | – | 8.2 µM | – | 5.4 µM |
| CC(C)n1c(NC2CCNC2)nc2c(C#N)c(Br)c(Br)cc21 (centres unmarked) [Example 1BH] | 83% | – | – | – | < 5% | – | – | > 10 µM | 5.6 µM | – | 13% | 60% | <5% | 22% | 4.6 µM | – | – | – | – |
| CCn1c(NC2CCNC2)nc2c([N+](=O)[O-])c(Br)c(Br)cc21 (centres unmarked) [Example 1AF] | > 95% | 23% | 71% | < 5% | < 5% | 47% | 1.2 µM | > 10 µM | 1.8 µM | 5.2 µM | – | – | – | – | – | – | 8.5 µM | – | 2.3 µM |
| CC(C)n1c(NC2CCC(N)CC2)nc2c([N+](=O)[O-])c(Br)c(Br)cc21 (centres unmarked) [Example 1BC] | 79% | 16% | 46% | – | – | 14% | 3.2 µM | 3.3 to 10 µM | – | – | – | – | <5% | – | – | <5% | 7.9 µM | – | 3 µM |
